The conditions of data set [1]: cited from earlier work.
A further data set can be described thus: in vitro. The data set is classed as cell-based. The conditions noted are these: human. On the procedure:
BEAS-2B (CRL-9609, ATCC, USA), a human bronchial epithelial cell line, was cultured in a T 75 flask containing DMEM (Gibco-BRL, USA) supplemented with 10% FBS at the concentration of 5×10^5 cells/ml. […] The concentration of the vehicle was less than 0.1% in every experiment.
MTT assay with the BEAS-2B cell line was performed according to the method of Mossman et al (J. Immunol. Methods, 65, 55-63, 1983). […] 48 hours later, MTT (3-[4,5-dimethylthiazol-2-yl]-2,5-diphenyltetra zolium bromide) 5 mg/ml was added at the concentration of 5 mg/ml, followed by culture at 37° C. for 3 hours. Then, medium was eliminated and generated formazan crystal was dissolved in 500 μl of DMSO. The solution was aliquoted in a 96 well-plate and OD540 was measured.

Where [2] appears, read: patients treated with amiodarone.

Experimental for BEAS-2B cells: Total RNA was extracted from the cells using trizol reagent (Invitrogen life technologies, USA) according to the manufacturer's instruction and the extracted RNA was purified by using RNeasy mini kit (Qiagen, USA). The genomic DNA was eliminated during the purification of RNA using RNase-free DNase set (Qiagen, USA). The total RNA was quantified by spectrophotometer and purity was measured by Agilent 2100 Bioanalyzer (Agilent Technologies, USA).
30 μg of the total RNA and 2 μg (1 μg/μl) of oligo (dT) primer were mixed, followed by reaction for 10 minutes at 65° C. Then, the reaction mixture was put in ice, followed by annealing.
At this time, the two samples were mixed and purified by Microcon YM-30 column (Millipore, USA).
Hybridization and washing were performed according to the instruction of GeneCneck Co., Ltd. Hybridization was performed in a 62° C. oven for 12 hours. At this time, 44 k whole human genome oligo microarray (Agilent, USA) was used as a DNA microarray chip. […]
Scanning of the hybridized images on the slide was performed by using Genepix 4000B (Axon Instruments, USA). Fluorescence images of the chip washed to eliminate non-binding genes were obtained by laser fluorescence scanner. […] The scanned images were analyzed by GenePix 4.1 software (Axon Instruments, USA) to calculate the gene expression rate.

With `CCCCc1oc2ccccc2c1C(=O)c1cc(I)c(OCCN(CC)CC)c(I)c1` [amiodarone], the “genes identified to be up-regulated” value in the data set on BEAS-2B cells (44 genes out of 44,290 genes, Cy5/Cy3 more than 2.0 fold) is listed as 0.1%. Also, the “genes identified to be down-regulated” value in the data set on BEAS-2B cells (45 genes out of 44,290 genes, Cy5/Cy3 less than 0.5 fold) was determined as 0.10%. In data set [1] (setting [2]), the “patients exhibiting boredom, fatigue, tremor, walking difficulty and peripheral neuropathy” value is reported as 20-40%; the “patients showing gastrointestinal disorder, nausea, vomiting, constipation and loss of appetite” value was “Approximately 25%”. For the same compound, the “patients treated with amiodarone exhibiting side effects” value in data set [1] (patients) is “approximately 50%”. Also, the IC20 at 48 h in the data set “in vitro” is 29.4 µM.

Usually IC20 stands for the concentration needed for an effect of 20%. A low value points to greater potency.

(Values after patent publication US20110190155A1 (Korea Institute of Science and Technology, priority 2007, published 2011).)
